Experimental data: US11541084B2, “Method of promoting bone regrowth” (GENMONT BIOTECH INC., priority 2017, dated 2023)

Legend:
Type in all cases: in vivo, mice (ICR female)
[1] = tested on: ovariectomized (OVX) mice; experiment: Bone tissue analysis by micro computed tomography of the femur in the osteoporosis mouse model; conditions: right femur, tube feed for 28 days, mean ±SD
Experimental: Experiment 1: Bone tissue analysis
(§1) (1) preparation of viable bacteria: Inoculating the Lactobacillus plantarum GMNL-662 from a frozen tube to 1 ml of MRS broth, and standing under 37° C. for aerobically incubating for 20 hours. The next day, adding 15 μl culture solution into 1.5 ml of MRS broth (1% secondary activation), and then standing under 37° C. for aerobically incubating for 20 hours. Estimating the bacteria number by using OD 600 to adjust the bacteria concentration to 8×10^7 CFU/ml.
as §1, with “(2)” for “(1)”, “dead” for “viable”, “Plantarum strain” for “plantarum”, “4.1×10^8” for “8×10^7”
8-week-old ICR female […] were purchased from BioLASCO Taiwan and ovariectomy was performed when they were 9 week-old. Mice were underwent anesthesia and were ovariectomized through back on both sides of the ovaries. All groups were given the test substance by means of tube feed at 4 days after surgery. The groups were divided into a sham operation group (control group, their abdominal cavity were cut but their ovaries were not removed); and 4 groups ovariectomized group (Ovariectomy; OVX). When the mice were sacrificed, the ovarian tissues were checked and confirmed whether the removal of ovarian was successful. The experimental results of the mice under failure operation were not used. […] The mice were given 0.1 ml per 10 grams of body weight and 4 times a week. The remaining two groups were fed with 0.2 ml of alive GMNL-662 (strain concentration is 8×10^7 cfu/ml; daily dose of the mouse is 1.6×10^7 cfu/mouse, the human dose is 4×10^9 cfu/60 kg adult), and 0.2 ml of dead GMNL-662 (strain concentration is 4.1×10^8 cfu/ml; daily dose of the mouse is 8.2×10^7 cells/mouse, the human dose is 2×10^10 cells/60 kg adult). The two groups were fed with tube one time every day, continued for 28 days, the mice were anesthetized and sacrificed for intraperitoneal cephalic vein sampling, and each femur was removed for analysis.
The backbone of the right femur far from the end was taken a computer tomography by a micro computed tomography (SkyScan 1076, Kontizh, Belgium, with resolution of 18 μm), and the trabecular bone volume ratio (i.e. bone volume/tissue volume) is analyzed by a software. The analyzed position was selected to include the area of 100 pieces under the growth plate excluding cortical bone. The bone mineral density analysis was applied to the same area. The obtained data in the experiments were analyzed with two-way analysis of variance, and executed T-test statistical analysis. All data were presented as mean ±SD. After comparisons, the abovementioned groups were analyzed statistically and noted by different marks to represent the statistically significant differences (* represents p<0.05; ** represents p<0.01).

[2] = tested on: cytokine TGF-β; experiment: Real-time PCR of bone cDNA from OVX mice: TGF-β expression; conditions: bone RNA of OVX mice after 28 days of tube feed; compared with disease group (OVX+H2O)
Experimental: (§2) 8-week-old ICR female rats were purchased from BioLASCO Taiwan and ovariectomy was performed when they were 9 week-old. Mice were underwent anesthesia and were ovariectomized through back on both sides of the ovaries. All groups were given the test substance by means of tube feed at 4 days after surgery. The groups were divided into a sham operation group (control group, their abdominal cavity were cut but their ovaries were not removed); and 4 groups ovariectomized group (Ovariectomy; OVX). When the mice were sacrificed, the ovarian tissues were checked and confirmed whether the removal of ovarian was successful. The experimental results of the mice under failure operation were not used. […]
(§3) Extraction of tibial RNA: The left femur of the mice were removed, cut into small pieces with scissor, and an appropriate amount of liquid nitrogen was added to grind the bones quickly. […] The solution was placed at room temperature to react for 5 minutes, followed by centrifugalized and extracted the upper layer to new microcentrifuge tubes (eppendorf); 0.25 ml isopropanol was added thereto and the solution was placed at room temperature for 10 minutes and then centrifugalized; the supernatant was removed and the precipitate was washed with 0.5 ml 75% ethanol; after the precipitate was dried, 20-50 μl DEPC water was added to dissolve the precipitate and the RNA concentration was measured. […]

[3] = tested on: osteocalcin gene; experiment: Real-time PCR of bone cDNA from OVX mice: osteocalcin expression; conditions: bone RNA of OVX mice after 28 days of tube feed; compared with disease group (OVX+H2O)
Experimental: as §2, §3

[4] = tested on: osteoclast related gene TRAP-5; experiment: Real-time PCR of bone cDNA from OVX mice: TRAP-5 expression; conditions: bone RNA of OVX mice after 28 days of tube feed; compared with disease group (OVX+H2O)
Experimental: as §2, §3

[5] = * p<0.05, ** p<0.01, disease group OVX+H2O 0.344 ± 0.04, sham control 0.502 ± 0.04
[6] = * p<0.05, ** p<0.01, disease group OVX+H2O 30.9 ± 1.1, sham control 42.12 ± 2.4

Substance	Femur bone mineral density (BMD, excluding cortical bone) [1, 5]	Femur bone mineral density (BMD, excluding cortical bone) ([1]; * p<0.05, ** p<0.01, disease group OVX+H2O 0.344 ± 0.04, sham control 0.502 ± 0.04, listed as alive GMNL-662)	Trabecular bone volume ratio (BV/TV, bone volume/tissue volume) [1, 6]	Trabecular bone volume ratio (BV/TV, bone volume/tissue volume) ([1]; * p<0.05, ** p<0.01, disease group OVX+H2O 30.9 ± 1.1, sham control 42.12 ± 2.4, listed as alive GMNL-662)	expression of cytokine TGF-β (relative to GAPDH), FIG. 1 [2]	expression of osteocalcin gene, FIG. 2 [3]	expression of osteoclast related gene TRAP-5, FIG. 3 [4]	Femur bone mineral density (BMD, excluding cortical bone) ([1]; * p<0.05, ** p<0.01, disease group OVX+H2O 0.344 ± 0.04, sham control 0.502 ± 0.04, listed as dead GMNL-662)	Trabecular bone volume ratio (BV/TV, bone volume/tissue volume) ([1]; * p<0.05, ** p<0.01, disease group OVX+H2O 30.9 ± 1.1, sham control 42.12 ± 2.4, listed as dead GMNL-662)
Lactobacillus plantarum strain GMNL-662 [GMNL-662 alive]	0.488 ± 0.02** g/cm^3	significantly higher	36.92 ± 1.7** %	higher than the disease group	significant increased expression	higher than the disease group	significantly lower		
Lactobacillus plantarum strain GMNL-662 [GMNL-662 dead]	0.474 ± 0.01** g/cm^3		36.8 ± 1.2** %		significant increased expression	higher than the disease group	significantly lower	significantly higher	higher than the disease group
